Reference: patent US7432262B2, “Imidazopyridazinediones, their preparation and their use as pharmaceutical compositions” (Boehringer Ingelheim International GmbH, priority 2004, dated 2008)

Molecular target: T1, DPP-IV (Homo sapiens, UniProt P27487)
T1 construct: an extract of the human colon carcinoma cell line Caco-2 is used as the DPP IV source; endogenous in cells; host or cells: Caco-2 (human colon carcinoma), differentiated to induce DPP-IV expression; extract solubilized with Nonidet-P40
T1 sequence (P27487 whole entry): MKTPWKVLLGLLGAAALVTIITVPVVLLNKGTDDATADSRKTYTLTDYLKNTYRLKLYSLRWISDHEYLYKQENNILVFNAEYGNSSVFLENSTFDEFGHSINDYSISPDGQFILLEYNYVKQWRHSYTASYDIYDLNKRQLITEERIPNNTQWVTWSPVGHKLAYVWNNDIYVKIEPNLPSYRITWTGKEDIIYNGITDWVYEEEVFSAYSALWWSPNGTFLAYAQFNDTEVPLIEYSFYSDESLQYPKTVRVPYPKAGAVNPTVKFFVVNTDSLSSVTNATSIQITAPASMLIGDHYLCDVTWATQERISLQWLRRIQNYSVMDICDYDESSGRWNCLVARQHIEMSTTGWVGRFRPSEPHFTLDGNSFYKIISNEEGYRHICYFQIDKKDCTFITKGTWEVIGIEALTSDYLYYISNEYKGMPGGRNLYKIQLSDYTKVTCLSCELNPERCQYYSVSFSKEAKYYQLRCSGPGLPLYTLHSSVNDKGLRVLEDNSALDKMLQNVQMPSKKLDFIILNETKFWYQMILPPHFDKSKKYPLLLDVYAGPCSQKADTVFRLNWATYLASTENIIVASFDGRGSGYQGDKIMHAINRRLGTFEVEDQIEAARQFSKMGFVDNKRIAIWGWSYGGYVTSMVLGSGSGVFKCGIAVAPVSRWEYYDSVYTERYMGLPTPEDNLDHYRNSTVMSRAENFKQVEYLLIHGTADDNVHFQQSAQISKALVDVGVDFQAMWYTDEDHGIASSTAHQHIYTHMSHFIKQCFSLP
Assay: DPP-IV assay with Caco-2 cell extract as DPP IV source
Type: biochemical
Conditions: extract of human colon carcinoma cell line Caco-2; AFC substrate 100 μM; 60 minutes, ambient temperature; 11-point curves; read-out: DPP IV inhibition IC50
Procedure: The differentiation of the cells in order to induce the DPP-IV expression was carried out in accordance with the description by Reiher et al. in an article entitled “Increased expression of intestinal cell line Caco-2” that appeared in Proc. Natl. Acad. Sci. Vol. 90, pp. 5757-5761 (1993). The cell extract was obtained from cells solubilized in a buffer (10 mM Tris HCl, 0.15 M NaCl, 0.04 t.i.u. aprotinin, 0.5% Nonidet-P40, pH 8.0) by centrifugation at 35,000 g for 30 minutes at 4° C. (to remove cell debris).
The DPP-IV assay was carried out as follows:
50 μl of substrate solution (AFC; AFC is amido-4-trifluoromethylcoumarin), final concentration 100 μM, was placed in black microtitre plates. 20 μl of assay buffer (final concentrations 50 mM Tris HCl pH 7.8, 50 mM NaCl, 1% DMSO) was pipetted therein. The reaction was started by the addition of 30 μl of solubilized Caco-2 protein (final concentration 0.14 μg of protein per well). The test substances under investigation were typically added prediluted to 20 μl, while the volume of assay buffer was then reduced accordingly. The reaction was carried out at ambient temperature, the incubation period was 60 minutes. Then the fluorescence was measured in a Victor 1420 Multilabel Counter, with the excitation wavelength at 405 nm and the emission wavelength at 535 nm. Dummy values (corresponding to 0% activity) were obtained in mixtures with no Caco-2 protein (volume replaced by assay buffer), control values (corresponding to 100% activity) were obtained in mixtures without any added substance. The potency of the test substances in question, expressed as IC50 values, were calculated from dosage/activity curves consisting of 11 measured points in each case.

Compound | IC50
CC#CCn1c(N2CCC[C@@H](N)C2)nc2c(=O)n(Cc3ccccc3)n(Cc3ccc4ccccc4n3)c(=O)c21 [1(3), (R)-1-(but-2-ynyl)-2-(3-amino-piperidin-1-yl)-5-(phenylmethyl)-6-(quinolin-2-ylmethyl)-5,6-dihydro-1H-imidazo[4,5-d]pyridazine-4,7-dione×2 trifluoroacetic acid] | 14 nM
CC#CCn1c(N2CCC[C@@H](N)C2)nc2c(=O)n(C)n(Cc3cccc4ccccc34)c(=O)c21 [1(4), (R)-1-(but-2-ynyl)-2-(3-amino-piperidin-1-yl)-5-methyl-6-(naphth-1-ylmethyl)-5,6-dihydro-1H-imidazo[4,5-d]pyridazine-4,7-dione×1 trifluoroacetic acid] | 52 nM
C=CCn1c(=O)c2nc(N3CCC[C@@H](N)C3)n(CC#CC)c2c(=O)n1Cc1ccc2ccccc2n1 [1(2), (R)-1-(but-2-ynyl)-2-(3-amino-piperidin-1-yl)-5-(prop-2-enyl)-6-(quinolin-2-ylmethyl)-5,6-dihydro-1H-imidazo[4,5-d]pyridazine-4,7-dione×2 trifluoroacetic acid] | 6 nM

Compounds with a lower IC50, results first:

IC50 | Compound
1 nM | CC#CCn1c(N2CCC[C@@H](N)C2)nc2c(=O)n(CC#N)n(Cc3ccc4ccccc4n3)c(=O)c21 [Example 1, (R)-1-(but-2-ynyl)-2-(3-amino-piperidin-1-yl)-5-cyanomethyl-6-(quinolin-2-ylmethyl)-5,6-dihydro-1H-imidazo[4,5-d]pyridazine-4,7-dione×2 trifluoroacetic acid]
4 nM | CC#CCn1c(N2CCC[C@@H](N)C2)nc2c(=O)n(C)n(Cc3ccc4ccccc4n3)c(=O)c21 [1(1), (R)-1-(but-2-ynyl)-2-(3-amino-piperidin-1-yl)-5-methyl-6-(quinolin-2-ylmethyl)-5,6-dihydro-1H-imidazo[4,5-d]pyridazine-4,7-dione×2 trifluoroacetic acid]
